PMC7138916 (Pharmacology Research & Perspectives, 2020)

Experiments:
[1] = cited from earlier work
[2] = Rat brain and blood microdialysis at steady state; settings: rat; for concentration at 6 h: male, Sprague-Dawley, in vivo, iv, C m,brain
[3] = Rat pharmacokinetic study, IV single bolus; settings: for Vd / clearance / half-life: male, Sprague-Dawley, in vivo, iv
[4] = Bidirectional permeability in parental MDCK cells; type: in vitro ADME, Canine; settings: dog, MDCK
[5] = target: human P‐gp (MDR1‐MDCK) (Homo sapiens, UniProt P08183); experiment: Bidirectional permeability and efflux ratio in MDR1‐MDCK cells; type: in vitro ADME; settings: MDR1‐MDCK cell line; for Efflux ratio: P app(B–A)/P app(A–B)
human P‐gp (MDR1‐MDCK), sequence (P08183 whole entry): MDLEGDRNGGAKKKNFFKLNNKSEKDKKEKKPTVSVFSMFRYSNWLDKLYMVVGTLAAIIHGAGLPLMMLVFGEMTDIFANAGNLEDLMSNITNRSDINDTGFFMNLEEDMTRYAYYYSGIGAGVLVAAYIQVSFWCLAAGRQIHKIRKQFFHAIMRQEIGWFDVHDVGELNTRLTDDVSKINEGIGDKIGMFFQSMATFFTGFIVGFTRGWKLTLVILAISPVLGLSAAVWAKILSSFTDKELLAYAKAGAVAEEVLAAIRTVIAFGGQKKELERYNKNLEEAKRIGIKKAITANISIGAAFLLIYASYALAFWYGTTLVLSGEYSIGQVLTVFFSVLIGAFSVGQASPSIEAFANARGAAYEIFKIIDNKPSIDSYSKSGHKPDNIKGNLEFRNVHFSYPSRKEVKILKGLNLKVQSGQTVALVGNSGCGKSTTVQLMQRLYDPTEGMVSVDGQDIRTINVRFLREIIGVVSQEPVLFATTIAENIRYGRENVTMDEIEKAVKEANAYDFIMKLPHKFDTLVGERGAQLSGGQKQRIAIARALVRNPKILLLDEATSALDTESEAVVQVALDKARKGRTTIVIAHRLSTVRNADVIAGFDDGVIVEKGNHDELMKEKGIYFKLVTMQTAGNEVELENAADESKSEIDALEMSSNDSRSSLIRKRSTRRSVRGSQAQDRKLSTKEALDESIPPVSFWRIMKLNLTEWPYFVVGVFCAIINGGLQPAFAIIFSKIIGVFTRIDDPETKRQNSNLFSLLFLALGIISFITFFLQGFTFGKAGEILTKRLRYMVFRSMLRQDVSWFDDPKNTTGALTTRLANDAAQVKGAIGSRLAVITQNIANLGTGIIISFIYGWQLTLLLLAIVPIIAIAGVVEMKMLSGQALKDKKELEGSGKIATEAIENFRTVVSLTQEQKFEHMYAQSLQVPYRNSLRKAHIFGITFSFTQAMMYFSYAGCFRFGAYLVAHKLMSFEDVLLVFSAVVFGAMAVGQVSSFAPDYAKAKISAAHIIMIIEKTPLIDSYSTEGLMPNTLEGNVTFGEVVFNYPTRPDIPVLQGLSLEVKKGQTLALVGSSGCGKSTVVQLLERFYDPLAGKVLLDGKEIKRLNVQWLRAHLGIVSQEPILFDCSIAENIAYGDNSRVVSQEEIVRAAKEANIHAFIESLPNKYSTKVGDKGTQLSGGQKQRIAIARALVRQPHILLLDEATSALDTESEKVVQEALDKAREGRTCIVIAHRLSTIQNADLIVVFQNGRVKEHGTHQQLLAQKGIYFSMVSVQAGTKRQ

[6] = target: human P-gp (MDR1) (Homo sapiens, UniProt P08183); experiment: as above; type: in vitro ADME; settings: human; for Papp A→B at 2 h, 1 μmol/L / Papp B→A at 2 h, 1 μmol/L: MDCK-MDR1; for efflux ratio at 2 h, 1 μmol/L: MDCK-MDR1, Efflux ratio, MDR1‐MDCK cell line, P app(B–A)/P app(A–B)
human P-gp (MDR1), sequence (P08183 whole entry): as above

[7] = test system: efflux transporters (eg, P‐gp, BCRP, MRPs); experiment: Classification as efflux transporter substrate; settings: for Efflux transporter substrate: Yes/No; for Class (based on membrane permeability and ER value): parental MDCK, MDR1‐MDCK, and Caco‐2 cell lines
[8] = test system: Caco‐2 cell line; experiment: Bidirectional permeability and efflux ratio in Caco‐2 cells; type: in vitro ADME, human; settings: for Efflux ratio: P app(B–A)/P app(A–B)
[9] = as above; type: in vitro ADME, human; settings: human; for Papp A→B at 2 h, 5 μmol/L / Papp B→A at 2 h, 5 μmol/L: Caco-2
[10] = steady‐state unbound concentration in brain (right striatum), microdialysis, IV infusion, mean ± SD
[11] = IV single bolus, n = 3, mean ± SD
[12] = Caco‐2 cell line, 5 μmol/L, 2 hours, n = 4

SMILES | concentration at 6 h [2, 10] [nM] | Vd [3] [L/kg] | clearance [3] [mL/min/kg] | half-life [3] [h] | Papp A→B at 2 h, 1 μmol/L [4] [×10⁻⁶ cm/s] | Papp at 2 h, 1 μmol/L [4] [×10⁻⁶ cm/s] | Efflux ratio [5] | Papp A→B at 2 h, 1 μmol/L [6] [×10⁻⁶ cm/s] | Papp B→A at 2 h, 1 μmol/L [6] [×10⁻⁶ cm/s] | Efflux transporter substrate [7] | Class (based on membrane permeability and ER value) [7] | Efflux ratio ([8]; Caco‐2 cell line) | Papp A→B at 2 h, 5 μmol/L [9] [×10⁻⁶ cm/s] | Papp B→A at 2 h, 5 μmol/L [9] [×10⁻⁶ cm/s] | further results
Cn1c(=O)c2[nH]cnc2n(C)c1=O [Theophylline, theophylline] | 4520 ± 2110 | 0.453 ± 0.048 | 1.58 ± 0.52 | 3.42 ± 1.02 |  |  |  |  |  |  |  |  |  |  | reported mean values of rat plasma CL [1]: 2.39 mL/min/kg
Nc1nc(O)c2ncn(COC(CO)CO)c2n1 [Ganciclovir, ganciclovir] | 2230 ± 960 | 0.852 ± 0.159 | 21.5 ± 1.4 | 1.35 ± 0.04 |  |  |  |  |  |  |  |  |  |  | 
CN(C)CCCC1(c2ccc(F)cc2)OCc2cc(C#N)ccc21 (stereo not shown) [Citalopram, citalopram] | 954 ± 91 | 6.45 ± 0.64 | 95.9 ± 11.2 | 1.02 ± 0.05 | 19 ± 3.1 | 15 ± 5.1 | 1.72 | 13.8 ± 3.2 | 23.7 ± 0.7 | No | Class I | 1.09 | 16 ± 1.8 | 17.4 ± 1.4 | Papp B→A at 2 h, 1 μmol/L [4]: 10.9 ± 2.6 ×10⁻⁶ cm/s; efflux ratio at 2 h, 1 μmol/L [6]: < 2; efflux ratio at 2 h, 5 μmol/L ([9]; Caco-2, Efflux ratio, Caco‐2 cell line, P app(B–A)/P app(A–B)): < 2
CN/C(=N/CCSCc1nc[nH]c1C)NC#N [Cimetidine] | 1420 ± 370 | 3.3 ± 1.93 | 53.7 ± 4.8 | 5.91 ± 4.71 | 0.963 ± 0.26 | 1.67 ± 0.78 | 1.68 | 1.91 ± 0.93 | 3.22 ± 0.389 | Yes | Class II | 9.20 | 0.706 ± 0.204 | 6.49 ± 1.37 | Papp B→A at 2 h, 1 μmol/L [4]: 2.37 ± 0.16 ×10⁻⁶ cm/s; efflux ratio at 2 h, 1 μmol/L [6]: < 2; Efflux ratio ([8]; Caco‐2 cell line, listed as cimetidine): greater than 2.0; ER after treatment with novobiocin ([8]; Caco‐2 cells treated with novobiocin (BCRP inhibitor), supplemental data): 3.29
Cc1c(N)c(=O)n(-c2ccccc2)n1C [4‐Aminoantipyrine, 4‐aminoantipyrine] |  |  |  |  |  |  | 0.662 |  |  | No | Class I | 0.713 |  |  | C csf ([2]; concentration in CSF at end of infusion (6 hours), n = 3‐4, mean ± SD): 5.82 ± 0.49 µmol/L; C csf lower than C m,brain by ([2]; steady state): about 25%; C m,blood ([2]; steady‐state unbound concentration in blood, microdialysis, IV infusion, n = 3‐4, mean ± SD): 6.73 ± 0.32 µmol/L; C m,brain [2, 10]: 7.71 ± 0.67 µmol/L; T 1/2 [3, 11]: 0.883 ± 0.025 h; V ss [3, 11]: 0.772 ± 0.018 L/kg; CL ([3]; plasma, IV single bolus, n = 3, mean ± SD): 17.7 ± 0.8 mL/min/kg; P app(A–B) ([5]; 1 μmol/L, 2 hours, n = 4): 39.1 ± 3.4 10^−6 cm/s; P app(B–A) ([5]; 1 μmol/L, 2 hours, n = 4): 25.9 ± 1.7 10^−6 cm/s; Efflux ratio ([5]; listed as 4‐aminoantipyrine): less than 2.0; P app(A–B) [8, 12]: 36.1 ± 2.5 10^−6 cm/s; P app(B–A) [8, 12]: 25.8 ± 1.5 10^−6 cm/s; Efflux ratio ([8]; Caco‐2 cell line, listed as 4‐aminoantipyrine): less than 2.0
CC1COc2c(N3CCN(C)CC3)c(F)cc3c(=O)c(C(=O)O)cn1c23 (stereo not shown) [Ofloxacin, ofloxacin] | 678 ± 293 | 5.08 ± 2.99 | 32.5 ± 4.9 | 6.32 ± 3.34 |  |  |  |  |  |  |  |  |  |  | 
NC(=O)N1c2ccccc2C=Cc2ccccc21 [Carbamazepine, carbamazepine] | 1370 ± 170 | 0.745 ± 0.081 | 18.1 ± 2.9 | 0.993 ± 0.115 | 34.2 ± 2.6 | 27.5 ± 7.5 | 0.665 | 34.3 ± 1.2 | 22.8 ± 0.5 | No | Class I | 0.662 | 33.1 ± 2.3 | 22 ± 1 | C csf higher than C m,brain by ([2]; steady state): 25%; Efflux ratio ([5]; listed as carbamazepine): less than 2.0; Efflux ratio ([8]; Caco‐2 cell line, listed as carbamazepine): less than 2.0
Nc1nnc(-c2cccc(Cl)c2Cl)c(N)n1 [Lamotrigine, lamotrigine] | 757 ± 42 | 1.86 ± 0.18 | 1.48 ± 0.21 | 15.6 ± 3 |  |  |  |  |  |  |  |  |  |  | reported mean values of rat plasma CL [1]: 0.83 mL/min/kg; C csf higher than C m,brain by ([2]; steady state): 45%
